# Laboratory results: EP0021292A1, “Alkoxybenzylpyridopyrimidines, methods for their preparation and pharmaceutical formulations thereof” (THE WELLCOME FOUNDATION LIMITED, priority 1979, dated 1981)
# Columns and labels:
# [1] = target: Histamine N-methyl-transferase ( HMT ) (Homo sapiens, UniProt P50135); assay: Inhibition of histamine N-methyltransferase (HMT); assay type: biochemical; conditions: read-out: % inhibition of HMT at 10^-5M
# Experimental: EXAMPLE 4 Inhibition of Histamine N-methyl-transferase ( HMT ) by 2,4-Diamino-6-benzylpyrido(2,3-d)pyrimidine
# The effect of the test compounds used in Example 3 against HMT was determined. An inhibition of less than 20% was considered acceptable and the lack of any effect on this enzyme is most desirable since any interference with histamine metabolism should be minimized.
# [2] = target: T1, DHFR partially purified from rat liver (Rattus norvegicus, UniProt Q920D2); assay: Inhibition of mammalian dihydrofolate reductase (DHFR); assay type: biochemical
# T1 construct: DHFR partially purified from rat liver; from tissue; host or cells: rat liver
# T1 sequence (Q920D2 1-187): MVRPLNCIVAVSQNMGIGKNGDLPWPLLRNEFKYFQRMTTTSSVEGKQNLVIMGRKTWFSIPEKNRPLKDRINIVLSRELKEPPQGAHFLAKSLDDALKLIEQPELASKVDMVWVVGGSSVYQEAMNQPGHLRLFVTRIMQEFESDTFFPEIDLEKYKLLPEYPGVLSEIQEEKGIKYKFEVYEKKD
# Experimental: The inhibitory effect of the test compounds against DHFR partially purified from rat liver was determined.
# Leukemia P388 cells = assay: Antileukemic effect on intraperitoneally inoculated P388 leukemia in mice; assay type: in vivo, CDF, Charles River female mice; conditions: for antileukemic activity: mice, 22, 33.5, 50 and 75 mg/kg, same schedule (twice daily for three days); for % increases in life span: mice
# Text: Leukemia P388 cells were inoculated intraperitoneally in CDF, Charles River female mice, each animal receiving 10^6 cells. On the second day after implantation with the leukemic cells, drug treatment was commenced and continued twice daily for three days.
# Solid Walker 256 tumors = assay: Antitumor effect on subcutaneously implanted Walker 256 tumors in rats; assay type: in vivo; conditions: for mean tumor volume as % of the untreated group: after 17 days
# Experimental: Solid Walker 256 tumors were implanted subcutaneously into three groups of rats. On the third day after implantation with the tumors drug treatment was commenced and continued for 5 successive days. One group of rats was treated with 2,4-diamino-6-(2,5-dimethoxybenzyl)-5-methylpyrido(2,3-d) pyrimidine at a dose of 25mg/kg q.i.d., a second group was treated with the same compound at 15 mg/kg b.i.d.; the third group were left untreated as controls.
# In a second study tumors were implanted subcutaneously and drug treatment delayed until 10 days after implantation. Drug treatment consisted of 30 mg/kg q.i.d. on days 10-13 and 50 mg/kg on days 20, 24 and 28 after tumor implantation. Mean tumor volumes were measured during the course of this study. […] Twenty-three days after tumor implantation T/C was 0.03.
# [3] = Acute toxicity in mice (i.p.); conditions: mouse, in vivo, ip
# Experimental: The acute toxicity of the title compounds was determined in mice ( i.p. ). The following results were obtained:-
# Sequence of Histamine N-methyl-transferase ( HMT ) (P50135 whole entry, species assumed): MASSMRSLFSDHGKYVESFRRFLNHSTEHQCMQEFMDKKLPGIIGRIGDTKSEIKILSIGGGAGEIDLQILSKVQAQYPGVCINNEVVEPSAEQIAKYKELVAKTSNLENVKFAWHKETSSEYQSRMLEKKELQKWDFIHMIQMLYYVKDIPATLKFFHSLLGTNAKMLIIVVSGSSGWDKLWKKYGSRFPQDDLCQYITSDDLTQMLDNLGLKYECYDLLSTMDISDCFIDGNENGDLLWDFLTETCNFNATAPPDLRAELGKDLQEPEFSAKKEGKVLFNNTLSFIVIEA
SMILES,inhibition at 10 µM [1],IC50 [2],also measured
Nc1nc(N)c2cc(Cc3ccccc3)cnc2n1,48%,250 nM,–
COc1ccc(Cc2cnc3nc(N)nc(N)c3c2C)cc1OC,19%,7.8 nM,–
COc1ccc(Cc2cnc3nc(N)nc(N)c3c2C)cc1,–,–,antileukemic activity (Leukemia P388 cells): inactive at all doses
"COc1ccc(OC)c(Cc2cnc3nc(N)nc(N)c3c2C)c1 [2,4-Diamino-5-methyl-6-(2,5-dimethoxybenzyl)pyrido-(2,3-d)pyrimidine)]",–,–,"mean tumor volume as % of the untreated group (Solid Walker 256 tumors; 15 mg/kg b.i.d. for 5 successive days from third day after implantation): 10%; mean tumor volume as % of the untreated group (Solid Walker 256 tumors; 25mg/kg q.i.d. for 5 successive days from third day after implantation): 29%; mean tumor volume during the period of observation (Solid Walker 256 tumors; second study, 30 mg/kg q.i.d. on days 10-13 and 50 mg/kg on days 20, 24 and 28): decrease in mean tumor volume; T/C (Solid Walker 256 tumors; second study, 30 mg/kg q.i.d. on days 10-13 and 50 mg/kg on days 20, 24 and 28, twenty-three days after tumor implantation): 0.03; % increases in life span (Leukemia P388 cells; 22 mg/kg twice daily for three days from second day): 145%; % increases in life span (Leukemia P388 cells; 33.5 mg/kg twice daily for three days from second day): 159%; % increases in life span (Leukemia P388 cells; 50 mg/kg twice daily for three days from second day): 140%; % increases in life span (Leukemia P388 cells; 75 mg/kg twice daily for three days from second day): 154%; drug-related toxicity (Leukemia P388 cells; mice, 22, 33.5, 50 and 75 mg/kg twice daily for three days): no evidence of drug-related toxicity; LD50 [3]: ~500 mg/kg"
Cc1c(Cc2ccccc2Cl)cnc2nc(N)nc(N)c12 [2-chlorobenzyl compound],–,–,antileukemic activity (Leukemia P388 cells): only marginal or slight activity
Cc1c(Cc2ccccc2)cnc2nc(N)nc(N)c12 [-CH2 Ph],51%,40 nM,–
"COc1ccc(OC)c(Cc2cnc3nc(N)nc(N)c3c2C)c1 [the 1st table, row 11]",11%,–,–

# The next lines start with results.
inhibition at 10 µM [1],IC50 [2],SMILES,also measured
–,27 nM,Cc1ccc(Cc2cnc3nc(N)nc(N)c3c2C)cc1,–
18%,50 nM,COc1ccccc1Cc1cnc2nc(N)nc(N)c2c1C,–
55%,90 nM,CCc1ccc(Cc2cnc3nc(N)nc(N)c3c2C)cc1,–
59%,16 nM,"Cc1c(Cc2ccccc2Cl)cnc2nc(N)nc(N)c12 [the 1st table, row 5]",–
20%,53 nM,"COc1ccc(Cc2cnc3nc(N)nc(N)c3c2C)cc1 [the 1st table, row 8]",–
